# From US20250268884A1, “Deuterated Domperidone for Treating Gastroparesis” (CinDome Pharma, Inc., priority 2022, published 2025)
# Tests used:
# [1] = Thorough QT study, plasma pharmacokinetics; assay type: in vivo, human; conditions: 400 mg single dose, healthy subjects
# Description: Blood samples for PK determination were drawn at the same time points immediately after the ECG extractions.
# [2] = system: cardiac repolarization (QTcF) in healthy subjects; conditions: human, in vivo
# Description: The same linear model was used for moxifloxacin.
# The same linear model with a treatment effect-specific intercept as in the concentration-QTc analysis was used in the assay sensitivity analysis for moxifloxacin.
# [3] = system: heart rate in healthy subjects; experiment: Thorough QT study, placebo-corrected change-from-baseline HR (ΔΔHR); assay type: in vivo, human; conditions: 400 mg moxifloxacin (Treatment C)
# [4] = system: cardiac repolarization (QTcF) in healthy subjects; experiment: Thorough QT study, by-time point analysis of ΔΔQTcF; conditions: for ΔΔQTcF LS Mean: 400 mg moxifloxacin (Treatment C)
# Description: The primary objective of this study was to assess the effect of CIN-102 on cardiac repolarization based on baseline and placebo-corrected change in corrected QT interval using Fridericia's formula (QTcF) in healthy subjects using a concentration-QTc analysis (primary analysis). Serial ECGs were extracted from continuous ECG recordings at prespecified time points starting at least one hour prior to dosing and ending approximately 48 hours post-dose in each period.
# Primary analysis was based on concentration-QTc modeling of the relationship between plasma drug concentrations and change-from-baseline QTcF (ΔQTcF) with the intent to exclude an effect of placebo-corrected ΔQTcF (ΔΔQTcF) >10 milliseconds (ms) at clinically relevant plasma levels.
# The study was a randomized, partially double-blind, active- and placebo-controlled, single dose, four-period, crossover study in healthy subjects 18-55 years of age.
# In each treatment period, continuous 12-lead ECGs were recorded starting at least one hour prior to dosing and ending approximately 48 hours post-dose. Twelve-lead ECGs were extracted in up to 10 replicates at the central ECG laboratory (ERT, Philadelphia, PA) at the following time points in each period: at 3 time points within one hour prior to dosing (−45, −30 and −15 minutes) and at 0.5, 1, 1.5, 2, 2.5, 3, 4, 5, 6, 8, 12, 24, 36, and 48 hours after each dose. Subjects were supinely resting for at least 10 minutes before and 5 minutes after each time point. When ECG extractions coincided with safety, ECGs, vital signs assessment, and blood draws, procedures were carried out in said order. No PK or other laboratory draws were performed and the subject was not approached until at least 5 minutes had elapsed after the 5-minute window for 12-lead ECG extraction for QT analysis.
# ECG intervals were measured by the core laboratory in a blinded manner using the Early Precision QT technique (EPQT). The ECG database was locked before any statistical analysis was undertaken.
# At each nominal time point specified in the protocol, up to 10 ECG replicates were extracted with TQT Plus methods. All readable cardiac cycles from these ECG replicates were assessed for multiple quality metrics, including beat stability, HR changes, noise, and other parameters, and were categorized into high and low confidence rank. All low confidence beats were fully reviewed and adjudicated manually by ECG technicians using pass-fail criteria. The beats found acceptable by manual review were included in the analysis.
# An unstructured covariance structure was used to specify the repeated measures at post-dose time points for subject within treatment period. The model also included a subject-specific random effect. Treatment A: 30 mg CIN-102 [representing approximate steady-state therapeutic exposures in subject population] Treatment B: 100 mg CIN-102 [representing potential steady-state supratherapeutic exposures in subjects] Treatment C: 400 mg open-label moxifloxacin.
# [5] = system: cardiac conduction (QRS interval) in healthy subjects; experiment: Thorough QT study, placebo-corrected change-from-baseline QRS (ΔΔQRS); conditions: 400 mg moxifloxacin (Treatment C)
# Description: (§1) Categorical T-wave morphology analysis and measurement of PR and QRS intervals were fully performed manually using a semi-automated process in 3 of the 10 ECG replicates at each time point. Final quality control and diagnostic interpretations were performed by the study cardiologist.
# An unstructured covariance structure was used to specify the repeated measures at post-dose time points for subject within treatment period. The model also included a subject-specific random effect.
# [6] = system: cardiac conduction (PR interval) in healthy subjects; experiment: Thorough QT study, placebo-corrected change-from-baseline PR (ΔΔPR); conditions: 400 mg moxifloxacin (Treatment C)
# Description: The secondary endpoints were: • Change-from-baseline QTcF, HR, PR, QRS intervals (ΔQTcF, ΔHR, ΔPR, and ΔQRS) • Placebo-corrected change-from-baseline HR, PR, and QRS (ΔΔHR, ΔΔPR, ΔΔQRS) • Categorical outliers for QTcF, HR, PR, and QRS • Frequency of treatment-emergent changes of T-wave morphology and U-waves presence
# as §1
# An unstructured covariance structure was used to specify the repeated measures at post-dose time points for subject within treatment period. The model also included a subject-specific random effect. Treatment A: 30 mg CIN-102 [representing approximate steady-state therapeutic exposures in subject population]; Treatment B: 100 mg CIN-102 [representing potential steady-state supratherapeutic exposures in subjects]; Treatment C: 400 mg open-label moxifloxacin
# healthy subjects = experiment: Thorough QT study, categorical outliers and T-wave morphology
# Description: Categorical T-wave morphology analysis and measurement of PR and QRS intervals were fully performed manually using a semi-automated process in 3 of the 10 ECG replicates at each time point.
# Treatment A: 30 mg CIN-102 [representing approximate steady-state therapeutic exposures in subject population]; Treatment B: 100 mg CIN-102 [representing potential steady-state supratherapeutic exposures in subjects]; Treatment C: 400 mg open-label moxifloxacin; Treatment D: CIN-102 placebo. A subject can appear in more than 1 category. The denominator (Total) is defined as the number of subjects or time points in the QT/QTc population for each treatment.
# [7] = 400 mg moxifloxacin (Treatment C), Total 51 subjects
# [8] = 400 mg moxifloxacin (Treatment C), Total 762 time points
# [9] = Treatment C: 400 mg open-label moxifloxacin, of 51 subjects
# [10] = Treatment C: 400 mg open-label moxifloxacin, of 762 time points
structure (smiles),measurement,setting,value
COc1c(N2C[C@@H]3CCCN[C@@H]3C2)c(F)cc2c(=O)c(C(=O)O)cn(C3CC3)c12 [moxifloxacin],geometric mean peak moxifloxacin concentration,[1],1552.6 ng/mL
same,lower bound of the 2-sided CI of the predicted QT effect,[2],above 5 ms
same,ΔΔHR LS Mean,[3]; 0.5 H Post Dose,1.9 bpm
same,ΔΔHR LS Mean,[3]; 1 H Post Dose,2.2 bpm
same,ΔΔHR LS Mean,[3]; 1.5 H Post Dose,1.0 bpm
same,ΔΔHR LS Mean,[3]; 2 H Post Dose,1.3 bpm
same,ΔΔHR LS Mean,[3]; 2.5 H Post Dose,−0.3 bpm
same,ΔΔHR LS Mean,[3]; 3 H Post Dose,−0.0 bpm
same,ΔΔHR LS Mean,[3]; 4 H Post Dose,0.7 bpm
same,ΔΔHR LS Mean,[3]; 5 H Post Dose,−0.0 bpm
same,ΔΔHR LS Mean,[3]; 6 H Post Dose,−1.3 bpm
same,ΔΔHR LS Mean,[3]; 8 H Post Dose,0.7 bpm
same,ΔΔHR LS Mean,[3]; 12 H Post Dose,−1.9 bpm
same,ΔΔHR LS Mean,[3]; 24 H Post Dose,−0.1 bpm
same,ΔΔHR LS Mean,[3]; 36 H Post Dose,−0.3 bpm
same,ΔΔHR LS Mean,[3]; 48 H Post Dose,0.8 bpm
same,peak LS mean ΔΔQTcF,"[4]; 400 mg oral moxifloxacin, 3 hours post-dose",13.3 ms
same,ΔΔQTcF LS Mean,[4]; 0.5 H Post Dose,5.8 ms
same,ΔΔQTcF LS Mean,[4]; 1 H Post Dose,12.2 ms
same,ΔΔQTcF LS Mean,[4]; 1.5 H Post Dose,10.9 ms
same,ΔΔQTcF LS Mean,[4]; 2 H Post Dose,11.3 ms
same,ΔΔQTcF LS Mean,[4]; 2.5 H Post Dose,11.7 ms
same,ΔΔQTcF LS Mean,[4]; 3 H Post Dose,13.3 ms
same,ΔΔQTcF LS Mean,[4]; 4 H Post Dose,12.1 ms
same,ΔΔQTcF LS Mean,[4]; 5 H Post Dose,10.3 ms
same,ΔΔQTcF LS Mean,[4]; 6 H Post Dose,7.5 ms
same,ΔΔQTcF LS Mean,[4]; 8 H Post Dose,8.9 ms
same,ΔΔQTcF LS Mean,[4]; 12 H Post Dose,8.2 ms
same,ΔΔQTcF LS Mean,[4]; 24 H Post Dose,4.0 ms
same,ΔΔQTcF LS Mean,[4]; 36 H Post Dose,3.0 ms
same,ΔΔQTcF LS Mean,[4]; 48 H Post Dose,2.6 ms
same,ΔΔQRS LS Mean,[5]; 0.5 H Post Dose,0.1 ms
same,ΔΔQRS LS Mean,[5]; 1 H Post Dose,0.5 ms
same,ΔΔQRS LS Mean,[5]; 1.5 H Post Dose,0.3 ms
same,ΔΔQRS LS Mean,[5]; 2 H Post Dose,0.4 ms
same,ΔΔQRS LS Mean,[5]; 2.5 H Post Dose,0.4 ms
same,ΔΔQRS LS Mean,[5]; 3 H Post Dose,0.6 ms
same,ΔΔQRS LS Mean,[5]; 4 H Post Dose,0.1 ms
same,ΔΔQRS LS Mean,[5]; 5 H Post Dose,0.7 ms
same,ΔΔQRS LS Mean,[5]; 6 H Post Dose,-0.1 ms
same,ΔΔQRS LS Mean,[5]; 8 H Post Dose,0.5 ms
same,ΔΔQRS LS Mean,[5]; 12 H Post Dose,0.1 ms
same,ΔΔQRS LS Mean,[5]; 24 H Post Dose,0.0 ms
same,ΔΔQRS LS Mean,[5]; 36 H Post Dose,0.5 ms
same,ΔΔQRS LS Mean,[5]; 48 H Post Dose,0.6 ms
same,ΔΔPR LS Mean,[6]; 0.5 H Post Dose,-3.4 ms
same,ΔΔPR LS Mean,[6]; 1 H Post Dose,-2.9 ms
same,ΔΔPR LS Mean,[6]; 1.5 H Post Dose,-3.6 ms
same,ΔΔPR LS Mean,[6]; 2 H Post Dose,-2.5 ms
same,ΔΔPR LS Mean,[6]; 2.5 H Post Dose,-1.3 ms
same,ΔΔPR LS Mean,[6]; 3 H Post Dose,-2.7 ms
same,ΔΔPR LS Mean,[6]; 4 H Post Dose,-2.0 ms
same,ΔΔPR LS Mean,[6]; 5 H Post Dose,-2.0 ms
same,ΔΔPR LS Mean,[6]; 6 H Post Dose,-3.0 ms
same,ΔΔPR LS Mean,[6]; 8 H Post Dose,-0.9 ms
same,ΔΔPR LS Mean,[6]; 12 H Post Dose,-0.0 ms
same,ΔΔPR LS Mean,[6]; 24 H Post Dose,-2.5 ms
same,ΔΔPR LS Mean,[6]; 36 H Post Dose,0.9 ms
same,ΔΔPR LS Mean,[6]; 48 H Post Dose,-0.3 ms
same,"Subjects with QTcF >450 and <=480 ms, number",healthy subjects; [7],6
same,"Subjects with QTcF >450 and <=480 ms, percent",healthy subjects; [7],(11.8%)
same,"Subjects with QTcF >480 and <=500 ms, number",healthy subjects; [7],0
same,"Subjects with QTcF >500 ms, number",healthy subjects; [7],0
same,"Time points with QTcF >450 and <=480 ms, number",healthy subjects; [8],19
same,"Time points with QTcF >450 and <=480 ms, percent",healthy subjects; [8],(2.5%)
same,"Time points with QTcF >480 and <=500 ms, number",healthy subjects; [8],0
same,"Time points with QTcF >500 ms, number",healthy subjects; [8],0
same,subjects with QTcF >450 and <480 ms,"healthy subjects; 400 mg moxifloxacin, at 19 time points",6 subject(s)
same,"QTcF outliers per change-from-baseline category: QTcF >30 and <=60 ms, subjects",healthy subjects; [9],0
same,"QTcF outliers per change-from-baseline category: QTcF >60 ms, subjects",healthy subjects; [9],0
same,"QTcF outliers per change-from-baseline category: QTcF >30 and <=60 ms, time points",healthy subjects; [10],0
same,"QTcF outliers per change-from-baseline category: QTcF >60 ms, time points",healthy subjects; [10],0
same,subjects with treatment-emergent inverted T waves,"healthy subjects; moxifloxacin treatment period, at 1 time point",1 subject
